Where “and” joins values, the source holds several entries; their conditions need not be identical. Equal values may be shown once. Read-outs that look alike come from different tables or passages of the source. Values belong to the compound of their own block, whether it stands above or below them.
Tests used:
[1] = molecular target: T1, dephosphorylated IRE1α (547–977) (Homo sapiens, UniProt O75460); experiment: FRET-based IRE1α RNase activity assay, dephosphorylated IRE1α; type: biochemical; conditions: for IC50: FRET assay; for inhibition at 50 µM: read-out: IRE1α inhibition%
T1 construct: Human IRE1α kinase and RNase domain (residues 547–977) was subcloned into pLIB plasmid; His tag (with TEV cleavage site) (N, cleaved yes); made in house; host or cells: Sf9 insect cells, baculovirus (Bac-to-Bac)
T1 sequence (O75460 547-977): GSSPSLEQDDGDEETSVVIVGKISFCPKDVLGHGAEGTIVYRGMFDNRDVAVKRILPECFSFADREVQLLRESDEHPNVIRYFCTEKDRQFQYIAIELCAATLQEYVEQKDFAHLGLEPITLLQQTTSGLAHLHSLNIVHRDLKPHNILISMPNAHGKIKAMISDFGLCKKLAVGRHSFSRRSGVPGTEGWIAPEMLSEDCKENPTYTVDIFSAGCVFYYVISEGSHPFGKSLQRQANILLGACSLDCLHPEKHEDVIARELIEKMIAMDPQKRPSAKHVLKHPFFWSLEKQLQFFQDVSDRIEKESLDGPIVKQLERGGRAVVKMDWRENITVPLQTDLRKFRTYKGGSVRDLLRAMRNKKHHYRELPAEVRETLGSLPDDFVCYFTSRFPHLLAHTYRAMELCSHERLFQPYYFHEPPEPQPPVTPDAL
Experimental: (§1) Human IRE1α kinase and RNase domain (residues 547–977) was subcloned into pLIB plasmid with a His tag and TEV cleavage site, and expressed using Bac-to-Bac expression system. The primers used are listed in Supplementary Table S3. The protein purification was performed following established procedures. Briefly, Sf9 cells were infected with baculovirus and incubated at 27 °C 110 rpm for 72 h. The cells were collected by centrifugation at 4000 × g for 15 min and the cell pellet was resuspended in lysis buffer (50 mM HEPES pH 7.5, 300 mM NaCl, 10% glycerol, 1 mM MgCl2, 1 mM TCEP, 5 mM imidazole), then supplemented with 1:10,000 benzonase (Sigma, E1014), 1 tablet/25 mL […]™ Protease Inhibitor Cocktail tablets (Sigma, S8830) and 1 mM PMSF before lysed by sonication at 4 °C. […] The protein elution was incubated with TEV protease to remove His tag at 4 °C overnight. Then the sample was diluted 1:6 in buffer (50 mM HEPES pH 7.5, 1 mM TCEP, 5% glycerol) and loaded onto a 5 mL pre-packaged Q HP anion exchange column (Cytiva, HiTrap Q HP) pre-equilibrated with QA buffer (50 mM HEPES pH 7.5, 50 mM NaCl, 1 mM TCEP, 5% glycerol). The unphosphorylated and phosphorylated protein was separated by eluting the protein with a very shallow gradient with 0-30% buffer QB (50 mM HEPES pH 7.5, 1 M NaCl, 1 mM TCEP, 5% glycerol) over 80 CV. Different peaks were collected separately and verified by LC-MS. The fully phosphorylated fraction was collected and further purified by size exclusion chromatography (Cytiva, HiLoad 16/600 Superdex 200 pg,) with SEC buffer (25 mM HEPES pH 7.5, 250 mM NaCl, 1 mM TCEP, 10% glycerol) and fractioned as monomeric peak. The rest protein fraction from the Q HP anion exchange column was incubated with Lambda protein phosphatase (New England BioLabs, P0753S) overnight at 4 °C, the dephosphorylation was confirmed by LC-MS. The unphosphorylated protein was further purified by size exclusion chromatography with the SEC buffer described above. The purified phosphorylated (p-IRE1α) and dephosphorylated (IRE1α) protein aliquots were stored at −80 °C for future usage.
The dual-labeled RNA substrate with a FAM at 5’ and the BHQ-1 at 3’ containing the XBP1 sequence (5′FAM-[…]-3′BHQ1) was purchased from Integrated DNA Technologies (IDT). The FRET-based IRE1α RNase activity assay was carried out in reaction buffer containing 20 mM HEPES pH 7.5, 50 mM KOAc, 1 mM MgOAc2, 1 mM DTT, 0.05% v/v TritonX-100, at a total reaction volume of 20 μL in a 384-well black plate (4514, Corning). For unphosphorylated IRE1α (IRE1α), a final concentration of 40 nM IRE1α protein and 100 nM RNA substrate was used. For phosphorylated IRE1 (p-IRE1α), a final concentration of 4 nM p-IRE1α protein and 200 nM RNA substrate was used. The indicated compound and IRE1α protein were incubated for 30 min at room temperature before the substrate was added to the reaction. The plate was then kinetically read over one hour at room temperature using a TECAN Spark plate reader. The measurement was carried out using the fluorescence top reading mode at the excitation wavelength of 485 nm and the emission wavelength of 535 nm with a 10 nm excitation and emission bandwidth. The linear part of the reaction curve was adopted and fitted with sample linear regression to obtain the slope, and the slope was adopted to reflect the reaction rate. The inhibition % was calculated by using the equation: inhibition% = 100 × (slope of DMSO control – slope of the sample)/(slope of DMSO control – slope of blank control), DMSO control: DMSO with protein and RNA substrate; Blank control: DMSO with RNA substrate. The IC50 values were calculated using the concentration-response model in GraphPad Prism 9. […]

p-IRE1α = molecular target: T2, p-IRE1α (Homo sapiens, UniProt O75460); experiment: Differential scanning fluorimetry (DSF), p-IRE1α; type: binding; conditions: individual replicate values
T2 construct: Human IRE1α kinase and RNase domain (residues 547–977) was subcloned into pLIB plasmid; His tag (with TEV cleavage site) (N, cleaved yes); made in house; host or cells: Sf9 insect cells, baculovirus (Bac-to-Bac)
T2 sequence (O75460 547-977): as above
Experimental: (§2) The DSF assay was performed in PBS buffer containing 2 mM DTT, in a total reaction volume of 20 µl with indicated compounds (final 1% DMSO) and the final concentration of 1 µM IRE1α protein and 5× SYPRO Orange fluorescent dye (5000× in DMSO, Sigma S5692). The melting curve was measured at a temperature range from 25 °C to 95 °C and in increments of 1 °C for 30 s using a Bio-Rad CFX96 Real-Time PCR detection system with the FRET scan mode. The melting temperature (Tm) was obtained by fitting the melting curve to Boltzmann sigmoidal in GraphPad Prism and the thermal shift (∆Tm) was calculated by using the equation: ∆Tm = Tm(compound) -Tm(DMSO).

[2] = molecular target: T3, phosphorylated IRE1α (p-IRE1α) (Homo sapiens, UniProt O75460); experiment: FRET-based IRE1α RNase activity assay, phosphorylated IRE1α; type: biochemical; conditions: for inhibition at 50 µM: read-out: p-IRE1α inhibition%
T3 construct: Human IRE1α kinase and RNase domain (residues 547–977) was subcloned into pLIB plasmid; His tag (with TEV cleavage site) (N, cleaved yes); made in house; host or cells: Sf9 insect cells, baculovirus (Bac-to-Bac)
T3 sequence (O75460 547-977): as above
Experimental: as §1
The dual-labeled RNA substrate with a FAM at 5’ and the BHQ-1 at 3’ containing the XBP1 sequence (5′FAM-[…]-3′BHQ1) was purchased from Integrated DNA Technologies (IDT). The FRET-based IRE1α RNase activity assay was carried out in reaction buffer containing 20 mM HEPES pH 7.5, 50 mM KOAc, 1 mM MgOAc2, 1 mM DTT, 0.05% v/v TritonX-100, at a total reaction volume of 20 μL in a 384-well black plate (4514, Corning). For unphosphorylated IRE1α (IRE1α), a final concentration of 40 nM IRE1α protein and 100 nM RNA substrate was used. For phosphorylated IRE1 (p-IRE1α), a final concentration of 4 nM p-IRE1α protein and 200 nM RNA substrate was used. The indicated compound and IRE1α protein were incubated for 30 min at room temperature before the substrate was added to the reaction. The plate was then kinetically read over one hour at room temperature using a TECAN Spark plate reader. The measurement was carried out using the fluorescence top reading mode at the excitation wavelength of 485 nm and the emission wavelength of 535 nm with a 10 nm excitation and emission bandwidth. The linear part of the reaction curve was adopted and fitted with sample linear regression to obtain the slope, and the slope was adopted to reflect the reaction rate. The inhibition % was calculated by using the equation: inhibition% = 100 × (slope of DMSO control – slope of the sample)/(slope of DMSO control – slope of blank control), DMSO control: DMSO with protein and RNA substrate; Blank control: DMSO with RNA substrate. The IC50 values were calculated using the concentration-response model in GraphPad Prism 9.

IRE1α = molecular target: T4, IRE1α (Homo sapiens, UniProt O75460); experiment: Differential scanning fluorimetry (DSF), IRE1α; type: binding; conditions: for IRE1 ∆Tm(°C): Supplementary Fig. 3c, replicate values
T4 construct: Human IRE1α kinase and RNase domain (residues 547–977) was subcloned into pLIB plasmid; His tag (with TEV cleavage site) (N, cleaved yes); made in house; host or cells: Sf9 insect cells, baculovirus (Bac-to-Bac)
T4 sequence (O75460 547-977): as above
Experimental: as §2

[3] = RNase activity, mean (± SEM), read-out: IRE1α IC50
[4] = source data, unit from Fig. 3 / sheet Fig. 2b, read-out: IRE1a IC50, individual replicates (n1-n4)
[5] = FRET assay, RNase activity, mean (± SEM), read-out: p-IRE1α IC50
[6] = FRET assay, source data, unit from Fig. 3, read-out: p-IRE1a IC50, individual replicates (n1-n4)
[7] = p-IRE1a, individual replicates (n1-n3), Supplementary Fig. 2b, 2c, read-out: IC50
[8] = FRET assay at 50 μM, mean (± SEM)
[9] = FRET assay at 50 μM, source data, 50 µM

Structure (SMILES): COc1ccc2c(c1)c(CCCC(=O)O)c(C)n2C(=O)c1ccc(Cl)cc1 [cms02]
inhibition at 50 µM [1, 8]: 40.3%
IRE1a inhibition(%), individual measurements [1, 9]: 64.1986% and 50.8974% and 61.5831% and 7.967% and 17.0403%
inhibition at 50 µM [2, 8]: 42.5%
p-IRE1a Inhibiton%, individual measurements [2, 9]: 54.5805% and 55.2276% and 56.4075% and 61.6984% and 12.177% and 15.0468%

Structure (SMILES): COc1ccc2c(c1)c(CC(=O)OCC(=O)O)c(C)n2C(=O)c1ccc(Cl)cc1 [cms03]
inhibition at 50 µM [1, 8]: < 30%
inhibition at 50 µM [2, 8]: < 30%

Structure (SMILES): COC(=O)CCc1c(C)n(C(=O)c2ccc(Cl)cc2)c2ccc(OC)cc12 [cms04]
inhibition at 50 µM [1, 8]: < 30%
inhibition at 50 µM [2, 8]: < 30%

Structure (SMILES): CCOC(=O)Cc1c(C)n(C(=O)c2ccc(Cl)cc2)c2ccc(OC)cc12 [cms05]
inhibition at 50 µM [1, 8]: < 30%
inhibition at 50 µM [2, 8]: < 30%

Next, values leading:

IC50 [1, 3]: 100 nM
IC50 [1, 4]: 73.3 nM and 110 nM and 118 nM
p-IRE1a ∆Tm(°C) (p-IRE1α; compound 6.25 μM): 0.24 °C and 0.45 °C
p-IRE1a ∆Tm(°C) (p-IRE1α; compound 12.5 μM): 0.39 °C and 0.62 °C
p-IRE1a ∆Tm(°C) (p-IRE1α; compound 25 μM): 1.04 °C and 1.05 °C
p-IRE1a ∆Tm(°C) (p-IRE1α; compound 50 μM): 1.49 °C and 1.54 °C
IC50 [2, 5]: 120 nM
IC50 [2, 6]: 176 nM and 68 nM and 105 nM
IC50 [2, 7]: 176 nM and 68 nM and 105 nM
stabilization of IRE1α in DSF (IRE1α): concentration-dependently stabilized
IRE1 ∆Tm(°C) (IRE1α; compound 6.25 μM): 0.75 °C and 0.95 °C
IRE1 ∆Tm(°C) (IRE1α; compound 12.5 μM): 1 °C and 0.99 °C
IRE1 ∆Tm(°C) (IRE1α; compound 25 μM): 1.96 °C and 1.82 °C
IRE1 ∆Tm(°C) (IRE1α; compound 50 μM): 2.84 °C and 2.57 °C
Structure (SMILES): COc1ccc2c(c1)c(CCC(=O)O)c(C)n2C(=O)c1cccs1 [IA03]

IC50 [1, 3]: 90 nM and 85 nM
IC50 [1, 4]: 63.5 nM and 100 nM and 91.3 nM
p-IRE1a ∆Tm(°C) (p-IRE1α; compound 6.25 μM): 0.49 °C and 0.43 °C
p-IRE1a ∆Tm(°C) (p-IRE1α; compound 12.5 μM): 0.57 °C and 0.74 °C
p-IRE1a ∆Tm(°C) (p-IRE1α; compound 25 μM): 1.03 °C and 1.24 °C
p-IRE1a ∆Tm(°C) (p-IRE1α; compound 50 μM): 1.59 °C and 1.56 °C
IC50 [2, 5]: 40 nM
IC50 [2, 6]: 57 nM and 41 nM and 21 nM
IC50 [2, 7]: 56.8 nM and 41.3 nM and 21.4 nM
stabilization of IRE1α in DSF (IRE1α): concentration-dependently stabilized
IRE1 ∆Tm(°C) (IRE1α; compound 6.25 μM): 0.71 °C and 0.59 °C
IRE1 ∆Tm(°C) (IRE1α; compound 12.5 μM): 1.19 °C and 1.23 °C
IRE1 ∆Tm(°C) (IRE1α; compound 25 μM): 1.84 °C and 1.88 °C
IRE1 ∆Tm(°C) (IRE1α; compound 50 μM): 2.92 °C and 2.84 °C
Structure (SMILES): COc1ccc2c(c1)c(CCC(=O)O)c(C)n2C(=O)c1cccc(C#N)c1 [IA30]

IRE1 ∆Tm(°C) (IRE1α; compound 6.25 μM): 0.1 °C and -0.04 °C
IRE1 ∆Tm(°C) (IRE1α; compound 12.5 μM): 0.02 °C and -0.1 °C
IRE1 ∆Tm(°C) (IRE1α; compound 25 μM): 0.25 °C and 0 °C
IRE1 ∆Tm(°C) (IRE1α; compound 50 μM): -0.02 °C and 0 °C
Structure (SMILES): COc1ccc2c(c1)c(CCC(=O)O)c(C)n2C(=O)c1ccc2ccccc2c1 [IA034]

— article PMC12475274, “Harnessing indole scaffolds to identify small-molecule IRE1α inhibitors modulating XBP1 mRNA splicing” (Nature Communications, 2025)
